The values that follow come from patent publication US5196427A, “3-aryl-4(3H) quinazolinone CCK antagonists and pharmaceutical formulations thereof” (Eli Lilly and Company, priority 1991, dated 1993).

For orientation: inhibition means the relative decrease from the control value, in per cent. As usually defined, the IC50 is the concentration at which inhibition is half-maximal.

Experiment [1] addresses T1, peripheral type CCK receptors in rat pancreas (Rattus norvegicus, UniProt P30551).
T1 construct: from tissue; host or cells: pancreas membranes of male Sprague-Dawley rats
T1 sequence (P30551 1-444): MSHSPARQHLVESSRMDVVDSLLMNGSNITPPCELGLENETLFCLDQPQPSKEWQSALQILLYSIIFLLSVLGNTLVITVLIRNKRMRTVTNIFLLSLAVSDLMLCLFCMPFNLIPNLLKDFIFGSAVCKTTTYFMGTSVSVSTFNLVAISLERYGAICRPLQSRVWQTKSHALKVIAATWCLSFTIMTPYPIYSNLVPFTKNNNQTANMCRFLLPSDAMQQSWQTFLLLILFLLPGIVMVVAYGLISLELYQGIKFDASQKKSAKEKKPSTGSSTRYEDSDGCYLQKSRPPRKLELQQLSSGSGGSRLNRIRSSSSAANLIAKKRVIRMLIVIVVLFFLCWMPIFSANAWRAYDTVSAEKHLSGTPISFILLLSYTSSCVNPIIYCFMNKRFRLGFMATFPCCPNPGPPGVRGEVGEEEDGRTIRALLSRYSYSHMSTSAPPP
The experiment is described as follows: Binding to peripheral type CCK receptors in rat pancreas (3H-L364,718). Conditions: rat pancreas; 10 μM; read-out: Pancreas % inhibition in binding assay. The procedure:
Binding to peripheral type CCK receptors in rat pancreas was done according to the method of Chang et al. (Mol. Pharmacol. 30: 212-217, 1986) using ^3 H-L364, 718. Pancreas was obtained from male & Sprague-Dawley rats, 150-200 g, after decapitation, and dissected free from adipose and connective tissue. The tissue was homogenized in 30 volumes of 50 mM Tris buffer, pH 7.4 and centrifuged at 40,000 g for 10 min. The tissue pellet was washed by resuspension and centrifugation as described above. The final pellet was suspended in 500 volumes of assay buffer (50 mM Tris buffer, pH 7.4, 5 mM MgC2, 0.14 mg/ml bacitracin, and 5 mM dithiothreitol) to give a protein concentration of 30-60 μg/200 μl. Reagent volumes for the assay were the same as those used for CCK binding to brain membranes. […] The samples were incubated 1 hour at room temperature and then filtered as described for the CCK-brain receptor. Scintillation cocktail was added to the filters which were counted for radioactivity using a Micromedic Taurus automatic liquid scintillation counter.
Compound samples were prepared and IC-50 values were determined as described for the CCK-brain experiments. Non-specific binding was that amount left bound to the filters after adding 100 nM L-364,718.

Another experiment deals with T2, Gastrin receptor (Cavia porcellus, UniProt H0VZC5).
T2 construct: from tissue; host or cells: stomach fundus mucosal membranes of male Hartley guinea pigs
T2 sequence (H0VZC5 1-426): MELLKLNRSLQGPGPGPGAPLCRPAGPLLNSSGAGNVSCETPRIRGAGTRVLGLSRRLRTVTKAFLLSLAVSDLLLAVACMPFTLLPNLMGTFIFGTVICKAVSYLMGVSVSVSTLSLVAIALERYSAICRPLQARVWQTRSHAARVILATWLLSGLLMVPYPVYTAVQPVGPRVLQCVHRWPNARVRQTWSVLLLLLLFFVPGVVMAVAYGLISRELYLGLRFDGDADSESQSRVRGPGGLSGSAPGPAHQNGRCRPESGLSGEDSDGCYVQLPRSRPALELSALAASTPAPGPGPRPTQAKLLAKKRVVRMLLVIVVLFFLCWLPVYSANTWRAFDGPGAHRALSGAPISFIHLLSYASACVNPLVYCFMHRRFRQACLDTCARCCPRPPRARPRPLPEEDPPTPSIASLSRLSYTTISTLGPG
Kind of experiment: Gastrin binding to guinea pig stomach mucosal membranes (125I-gastrin I). Conditions: Mean ± SEM, n = 3. As for the experimental part:
The method used for gastrin binding to guinea pig stomach mucosal membranes was similar to that described by Takeuchi, Speir and Johnson (Am. J. Physiol. 237(3): E284-E294, 1979). Guinea pig stomach […] was obtained from male Hartley guinea pigs, 300-350 g, and the mucosa was scraped off with a glass The mucosa was homogenized in 50 mM Tris buffer, pH 7.4, containing 1 mM phenylmethanesulfonyl fluoride using a Dounce glass homogenizer, and the suspension was centrifuged at 40,000 g for 10 min. The resulting pellet was resuspended and centrifuged once more, the final pellet was then suspended in 100 ml assay buffer per 1 guinea pig stomach to give a protein concentration of 200-300 μg/200 μl. The assay buffer consisted of 50 mM Tris buffer, pH 7.4, 5 mM MgC2, 0.14 mg/ml bacitracin, and 1 μg/ml each of leupeptin, chymostatin, aprotinin and pepstatin. Reagent volumes for the assay were the same as those used for CCK binding to brain membranes. The radioactive ligand was 20 pM ^125 I-gastrin I, from DuPont NEN (NEX-176). The samples were incubated 3 hours at room temperature and filtered and counted as described for CCK binding to brain membranes. Compound samples were prepared and IC-50 values were determined as described for the CCK-brain receptor binding. Non-specific binding was determined using 100 nM gastrin I (human synthetic from Sigma Chemical Co.).

For another experiment, the target named is T3, Brain CCK receptor (Mus musculus, UniProt P56481).
T3 construct: from tissue; host or cells: forebrain membranes of male CF-1 mice
T3 sequence (P56481 1-453): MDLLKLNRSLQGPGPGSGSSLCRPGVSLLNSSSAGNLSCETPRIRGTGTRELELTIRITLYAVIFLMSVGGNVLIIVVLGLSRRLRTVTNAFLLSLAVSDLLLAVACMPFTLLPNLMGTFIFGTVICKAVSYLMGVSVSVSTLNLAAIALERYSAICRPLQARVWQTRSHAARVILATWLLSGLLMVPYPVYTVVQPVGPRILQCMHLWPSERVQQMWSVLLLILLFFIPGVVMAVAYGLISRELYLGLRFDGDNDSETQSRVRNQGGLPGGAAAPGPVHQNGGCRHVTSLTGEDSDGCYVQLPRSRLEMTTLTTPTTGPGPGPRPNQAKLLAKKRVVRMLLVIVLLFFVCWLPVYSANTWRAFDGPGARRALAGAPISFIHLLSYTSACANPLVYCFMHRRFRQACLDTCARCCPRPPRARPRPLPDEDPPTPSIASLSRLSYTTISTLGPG
The experiment is described as follows: Brain CCK receptor binding (mouse brain membranes, 125I-CCK-8 sulfate). As to conditions: mouse brain membranes; Mean ± SEM, n = 3; values without SEM n = 1; read-out: Brain IC50. As for the experimental part:
Brain CCK receptor binding was performed using mouse brain membranes according to the method of Chang and Lotti (Proc. Natl. Acad. Sci. 83: 4923-4926, 1986). Male CF-1 mice, 23-25 g were sacrificed by cervical dislocation, the forebrain removed and placed in ice cold 50 mM Tris buffer, pH 7.4. The tissue was homogenized in 100 volumes of the Tris buffer with a Brinkman Polytron or Tekmar Tissumizer and then centrifuged at 40,000 g for 10 min. Pellets were resuspended in Tris buffer, centrifuged as above and then resuspended in 100 volumes of assay buffer, pH 6.5 (20 mM N-2-hydroxyethyl-piperazine-N'-2-ethane sulfonic acid (HEPES), 1 mM ethylene glycol bis(2-aminoethyl ether-N,N,N',N'-tetraaceticacid) (EGTA), 5 mM MgCl2, 130 mM NaCl, and 0.25 mg/ml bacitracin). The binding assay consisted of 50 μL of compound (or buffer for total binding), 50 μL of ^125 I-CCK-8 sulfate (20 pM) (Amersham IM-159), 200 μL of assay buffer and 200 μL of homogenate (80-120 μg protein). The samples were incubated at room temperature (25°) for 2 hours, and they were then filtered through GF/B glass fiber filters (soaked in wash buffer for 2 hours before use) using a 48 well Brandel cell harvester designed for receptor binding. The filters were washed twice with 3 ml of 50 mM Tris buffer, pH 7.4, containing 0.01% BSA and then counted for radioactivity in plastic tubes with a Micromedic 10/600 automatic gamma counter.
Compounds were dissolved in dimethyl sulfoxide (DMSO) at a concentration of 10 mM and then further diluted with assay buffer. […] IC-50 values of displacement curves were determined using 7 concentrations of compound and were calculated using the ALLFIT computer program of DeLean, Munson and Rodbard (Am. J. Physiol. 235: E97-E102, 1978). Non-specific binding was determined as the displacement of the radioligand by 100 nM CCK-8 sulfate.

The structures appear in SMILES notation.

Regarding `CCc1cccc(-n2c(CCc3c[nH]c4ccc(Br)cc34)nc3ccccc3c2=O)c1` [Example 29], the inhibition at 10 µM in experiment [1] was -4.5%. Also, the values for the IC50 at Gastrin receptor and at Brain CCK receptor were 1.1 ± 0.2 µM and 0.046 ± 0.01 µM, respectively.
With `CCc1cccc(-n2c(CC(C)c3c[nH]c4ccc(Br)cc34)nc3ccccc3c2=O)c1` (centres unmarked) [Example 64], the values for the IC50 at Gastrin receptor and at Brain CCK receptor were 1.6 ± 0.1 µM and 0.1 ± 0.01 µM, respectively.
